Tests used:
[1] = target: GABA-A receptor; agonist GABA site (Homo sapiens) (UniProt P14867+P47870+P28472+P48169+P34903+P18505+P47869+P31644+Q16445); assay: Inhibition of agonist site of GABAA receptor at 100 nM; format: functional
[2] = target: T1, monoamine oxidase A (MAO-A) (Rattus norvegicus, UniProt P21396); assay: Inhibition of monoamine oxidase A in rat brain at 10 uM; format: tissue-based
T1 sequence (P21396 whole entry): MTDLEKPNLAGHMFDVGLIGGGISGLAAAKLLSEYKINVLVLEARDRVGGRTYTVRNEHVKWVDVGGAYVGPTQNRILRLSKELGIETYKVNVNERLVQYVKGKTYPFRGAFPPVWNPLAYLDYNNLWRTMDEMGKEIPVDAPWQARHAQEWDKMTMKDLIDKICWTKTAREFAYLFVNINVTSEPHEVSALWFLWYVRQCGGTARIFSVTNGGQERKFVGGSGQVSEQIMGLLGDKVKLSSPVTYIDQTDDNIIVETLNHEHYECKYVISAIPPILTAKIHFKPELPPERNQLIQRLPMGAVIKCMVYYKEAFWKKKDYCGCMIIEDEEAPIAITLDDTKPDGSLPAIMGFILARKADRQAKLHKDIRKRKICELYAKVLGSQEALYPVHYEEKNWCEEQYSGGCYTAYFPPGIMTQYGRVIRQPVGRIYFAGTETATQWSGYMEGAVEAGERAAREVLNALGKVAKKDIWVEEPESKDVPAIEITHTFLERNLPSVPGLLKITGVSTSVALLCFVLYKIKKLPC

[3] = target: T2, monoamine oxidase B (MAO-B) (Rattus norvegicus, UniProt P19643); assay: Inhibition of monoamine oxidase B in rat brain at 10 uM; format: tissue-based
T2 sequence (P19643 whole entry): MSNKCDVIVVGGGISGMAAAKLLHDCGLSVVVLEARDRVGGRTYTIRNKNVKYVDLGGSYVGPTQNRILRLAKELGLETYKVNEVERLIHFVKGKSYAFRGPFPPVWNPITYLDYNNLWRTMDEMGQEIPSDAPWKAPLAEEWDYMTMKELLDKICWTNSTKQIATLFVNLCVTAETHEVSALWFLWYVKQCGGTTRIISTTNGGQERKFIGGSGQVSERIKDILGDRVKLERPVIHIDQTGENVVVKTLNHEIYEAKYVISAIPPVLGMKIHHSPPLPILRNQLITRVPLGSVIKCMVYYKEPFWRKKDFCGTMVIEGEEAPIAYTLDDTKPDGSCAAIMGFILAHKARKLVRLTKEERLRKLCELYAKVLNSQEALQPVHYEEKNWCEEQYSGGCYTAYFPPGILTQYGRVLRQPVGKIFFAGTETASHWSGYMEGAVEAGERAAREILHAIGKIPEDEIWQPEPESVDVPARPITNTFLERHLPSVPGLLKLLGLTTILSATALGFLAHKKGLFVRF

[4] = target: T3, Androgen receptor (Homo sapiens) (UniProt P10275); assay: Inhibition of testosterone receptor at 10 uM
T3 sequence (whole entry): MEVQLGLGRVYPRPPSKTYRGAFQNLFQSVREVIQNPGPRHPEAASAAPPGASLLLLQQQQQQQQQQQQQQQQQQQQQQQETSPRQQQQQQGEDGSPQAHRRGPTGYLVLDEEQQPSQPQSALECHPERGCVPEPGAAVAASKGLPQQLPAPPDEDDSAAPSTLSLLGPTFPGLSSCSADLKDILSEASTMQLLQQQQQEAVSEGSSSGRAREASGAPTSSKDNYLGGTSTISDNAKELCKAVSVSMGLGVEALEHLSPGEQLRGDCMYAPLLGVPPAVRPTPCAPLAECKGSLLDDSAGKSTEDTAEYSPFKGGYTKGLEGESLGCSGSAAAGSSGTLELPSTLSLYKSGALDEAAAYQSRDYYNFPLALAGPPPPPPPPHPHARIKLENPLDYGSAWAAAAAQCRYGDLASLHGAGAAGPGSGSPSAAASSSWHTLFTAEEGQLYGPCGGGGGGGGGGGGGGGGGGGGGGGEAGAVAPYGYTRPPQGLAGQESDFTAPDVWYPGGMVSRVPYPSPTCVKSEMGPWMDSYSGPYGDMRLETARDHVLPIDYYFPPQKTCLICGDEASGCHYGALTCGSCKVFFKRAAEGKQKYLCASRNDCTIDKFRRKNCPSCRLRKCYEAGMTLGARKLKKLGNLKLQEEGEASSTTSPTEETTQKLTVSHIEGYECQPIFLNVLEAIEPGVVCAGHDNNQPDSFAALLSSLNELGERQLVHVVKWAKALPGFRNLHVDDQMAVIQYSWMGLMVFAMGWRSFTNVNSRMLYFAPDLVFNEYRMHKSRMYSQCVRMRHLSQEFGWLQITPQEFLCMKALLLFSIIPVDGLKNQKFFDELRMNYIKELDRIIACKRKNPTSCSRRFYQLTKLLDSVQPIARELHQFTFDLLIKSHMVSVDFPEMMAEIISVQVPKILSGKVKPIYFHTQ

[5] = Inhibitory activity at site 2 of sodium channel at 10 uM
[6] = target: T4, 5-hydroxytryptamine receptor 1A (Homo sapiens) (UniProt P08908); assay: Inhibition of forskolin activated adenylate cyclase at 100 nM; format: functional
T4 sequence (whole entry): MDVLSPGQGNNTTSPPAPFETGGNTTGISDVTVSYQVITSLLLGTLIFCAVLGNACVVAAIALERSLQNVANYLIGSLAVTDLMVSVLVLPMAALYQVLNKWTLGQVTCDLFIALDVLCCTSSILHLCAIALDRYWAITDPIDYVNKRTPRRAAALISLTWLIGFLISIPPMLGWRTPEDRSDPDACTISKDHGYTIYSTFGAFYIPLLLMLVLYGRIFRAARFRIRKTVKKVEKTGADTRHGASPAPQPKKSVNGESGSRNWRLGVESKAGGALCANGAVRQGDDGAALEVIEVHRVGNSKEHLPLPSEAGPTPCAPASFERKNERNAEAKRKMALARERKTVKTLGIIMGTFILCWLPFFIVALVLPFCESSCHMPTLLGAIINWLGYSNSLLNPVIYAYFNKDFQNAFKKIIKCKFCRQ

[7] = target: Platelet-activating factor receptor (Homo sapiens) (UniProt P25105); assay: Inhibition of PAF at 10 uM
[8] = target: Substance-P receptor (Homo sapiens) (UniProt P25103); assay: Inhibition of neurokinin 1 receptor at 10 uM
MDR1 (P-gp) = assay: Permeability from basolateral to apical side of the MDCK cell transfected with human MDR1; format: ADME, cell-based
[9] = target: Adenosine receptor (Homo sapiens) (UniProt P30542+P29275+P0DMS8+P29274); assay: Inhibition of non selective binding to adenosine receptor at 1 nM; format: protein assay
[10] = Distribution coefficient at pH 7.4; format: physicochemical; conditions: octanol/water
[11] = target: Adrenergic receptor beta (Homo sapiens) (UniProt P08588+P07550+P13945); assay: Inhibition of non selective binding to adrenergic beta receptor at 10 uM; format: protein assay
[12] = target: Dopamine receptor (Homo sapiens) (UniProt P14416+P35462+P21918+P21917+P21728); assay: Inhibition of non selective binding to dopamine receptor at 10 uM; format: protein assay

Platelet-activating factor receptor (Homo sapiens), sequence (P25105 whole entry): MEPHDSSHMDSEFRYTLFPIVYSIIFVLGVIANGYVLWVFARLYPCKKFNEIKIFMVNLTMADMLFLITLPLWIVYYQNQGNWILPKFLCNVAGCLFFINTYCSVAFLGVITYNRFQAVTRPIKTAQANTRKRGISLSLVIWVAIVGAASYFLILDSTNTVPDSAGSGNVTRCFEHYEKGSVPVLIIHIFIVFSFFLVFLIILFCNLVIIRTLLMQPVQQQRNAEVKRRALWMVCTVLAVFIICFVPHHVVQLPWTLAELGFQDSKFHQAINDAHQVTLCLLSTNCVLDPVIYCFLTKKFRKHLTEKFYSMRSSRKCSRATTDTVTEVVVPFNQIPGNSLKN
Adenosine receptor (Homo sapiens), sequence (P0DMS8 whole entry, looked up): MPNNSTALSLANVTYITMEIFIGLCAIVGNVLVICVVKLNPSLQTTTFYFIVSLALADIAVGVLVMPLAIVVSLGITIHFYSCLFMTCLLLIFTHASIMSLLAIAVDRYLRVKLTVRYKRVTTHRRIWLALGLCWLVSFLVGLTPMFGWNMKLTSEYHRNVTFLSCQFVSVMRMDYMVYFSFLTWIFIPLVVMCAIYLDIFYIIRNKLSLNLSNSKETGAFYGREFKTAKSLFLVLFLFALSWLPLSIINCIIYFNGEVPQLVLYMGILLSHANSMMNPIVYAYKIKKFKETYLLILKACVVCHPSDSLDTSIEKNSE
Adenosine receptor (Homo sapiens), sequence (P29274 whole entry, looked up): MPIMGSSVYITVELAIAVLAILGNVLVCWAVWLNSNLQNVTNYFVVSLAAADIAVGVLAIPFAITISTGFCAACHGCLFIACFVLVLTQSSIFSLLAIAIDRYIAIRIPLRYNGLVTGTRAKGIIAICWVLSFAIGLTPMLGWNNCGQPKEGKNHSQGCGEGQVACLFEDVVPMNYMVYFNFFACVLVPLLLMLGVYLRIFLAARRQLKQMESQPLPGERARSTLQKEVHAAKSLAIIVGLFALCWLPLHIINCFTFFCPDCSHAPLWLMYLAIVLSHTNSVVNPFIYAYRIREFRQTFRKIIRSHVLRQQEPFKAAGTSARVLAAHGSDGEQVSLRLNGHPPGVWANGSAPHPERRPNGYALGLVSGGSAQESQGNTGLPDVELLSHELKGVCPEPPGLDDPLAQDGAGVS
Adenosine receptor (Homo sapiens), sequence (P29275 whole entry, looked up): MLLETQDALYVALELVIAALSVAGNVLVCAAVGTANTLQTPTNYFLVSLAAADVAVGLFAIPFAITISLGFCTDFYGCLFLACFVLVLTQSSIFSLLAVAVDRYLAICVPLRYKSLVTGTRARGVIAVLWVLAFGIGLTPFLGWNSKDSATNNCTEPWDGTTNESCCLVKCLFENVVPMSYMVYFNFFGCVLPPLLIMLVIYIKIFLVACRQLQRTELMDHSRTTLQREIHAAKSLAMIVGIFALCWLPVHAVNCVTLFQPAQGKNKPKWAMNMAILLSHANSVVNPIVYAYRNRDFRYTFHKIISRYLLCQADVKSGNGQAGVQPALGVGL
Adenosine receptor (Homo sapiens), sequence (P30542 whole entry, looked up): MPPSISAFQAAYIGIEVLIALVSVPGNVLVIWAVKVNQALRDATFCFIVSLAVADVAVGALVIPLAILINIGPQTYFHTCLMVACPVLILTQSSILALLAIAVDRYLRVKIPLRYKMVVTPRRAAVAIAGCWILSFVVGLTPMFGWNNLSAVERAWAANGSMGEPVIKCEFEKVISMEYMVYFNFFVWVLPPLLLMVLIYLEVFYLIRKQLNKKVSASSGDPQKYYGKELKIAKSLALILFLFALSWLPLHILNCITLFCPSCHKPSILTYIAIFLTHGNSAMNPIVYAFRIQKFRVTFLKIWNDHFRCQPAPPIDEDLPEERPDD
Substance-P receptor (Homo sapiens), sequence (P25103 whole entry): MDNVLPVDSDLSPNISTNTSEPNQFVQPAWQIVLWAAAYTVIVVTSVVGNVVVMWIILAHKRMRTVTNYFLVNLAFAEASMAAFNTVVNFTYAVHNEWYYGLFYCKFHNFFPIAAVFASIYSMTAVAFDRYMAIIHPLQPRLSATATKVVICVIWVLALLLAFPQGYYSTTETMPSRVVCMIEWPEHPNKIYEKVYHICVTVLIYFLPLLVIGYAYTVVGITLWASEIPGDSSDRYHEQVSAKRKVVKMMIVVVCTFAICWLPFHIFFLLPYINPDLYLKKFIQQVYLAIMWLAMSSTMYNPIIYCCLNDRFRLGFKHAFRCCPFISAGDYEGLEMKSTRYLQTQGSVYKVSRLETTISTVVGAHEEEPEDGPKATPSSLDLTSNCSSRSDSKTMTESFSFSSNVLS

Work on `C[C@H](N)Cn1ncc2ccc(O)cc21` yielded an inhibition [1] of -0.91%, an inhibition at 10 µM [2] of 0.82% and an inhibition at 10 µM [3] of -18.4%. The inhibition [4] was 21.9%, the inhibition [5] was -0.61% and the inhibition [6] was -2.24%. The inhibition [7] was 34.4%, the inhibition [8] was 33% and the Papp B→A (MDR1 (P-gp)) was 0.88 ×10⁻⁶ cm/s. For the same compound, the inhibition [9] was 11.2%, the logD [10] was 0.693 and the inhibition [11] was 30.4%. The inhibition [12] was 51.2%.
